Laboratory results taken from patent publication EP1977645A1, “Insecticidal derivates of substituted phenylalkylamines” (priority 2007, dated 2008).

Assay: log P determination (acidic)
Type: physicochemical

Compound `CNC(=S)N1CCO/C1=N\[C@@H](C)c1ccccc1F` [compound 3, (2Z)-2-{[(1S)-1-(2-fluorophenyl)ethyl]imino}-N-methyl-1,3-oxazolidine-3-carbothioamide] has a logP of 3.18.
